From PMC7367283, “A PIP2 substitute mediates voltage sensor-pore coupling in KCNQ activation” (Communications Biology, 2020)

What was measured:
[1] = target: IKs (KCNQ1 + KCNE1) (Homo sapiens, UniProt P51787); assay: IKs co-expressed with CiVSP (PIP2 depletion), two-electrode voltage clamp in Xenopus oocytes; assay type: cell-based; conditions: 100 µM chromanol 293B, bath application after 10 µM CP1
Description: We co-expressed KCNQ1 with the voltage-dependent lipid phosphatase CiVSP[44] in Xenopus oocytes and recorded KCNQ1 currents using two-electrode voltage clamp with consecutive depolarizing voltage pulses. […] To more directly test CP1 effects, we applied CP1 to the intracellular side of the inside-out membrane patch that expressed IKs channels.

[2] = test system: KCNQ2/KCNQ3 channel; parameters: method as in PMID 22303005; conditions: cited from earlier work

SMILES	effect on CP1-rescued IKs currents [1]	effect on channel activity [2]
CCS(=O)(=O)N(C)[C@H]1c2cc(C#N)ccc2OC(C)(C)[C@@H]1O (racemic) [Chromanol 293B, reference compound]	inhibited	
O=P(O)(O)O[C@@H]1[C@H](O)[C@H](O)[C@@H](OP(=O)(O)O)[C@H](OP(=O)(O)O)[C@H]1O [I(1,4,5)P3]		no effect on channel activity
O=P(O)(O)O[C@@H]1[C@@H](O)[C@H](O)[C@H](O)[C@H](O)[C@H]1OP(=O)(O)O [I(4,5)P2]		no effect on channel activity
